Test results: publication PMC11173382, “In Vitro Investigations into the Potential Drug Interactions of Pseudoginsenoside DQ Mediated by Cytochrome P450 and Human Drug Transporters” (Molecules, 2024)
Each block holds one compound with its values, some of them ahead of it.

Columns and labels:
hOCT2 = molecular target: T1, hOCT2 (Homo sapiens, UniProt O15244); assay: Substrates uptake assay, S2-OCT2 cells (14C-TEA); format: in vitro ADME; conditions: inhibitor 600 μM
T1 construct: host or cells: S2-OCT2
T1 sequence (O15244 1-555): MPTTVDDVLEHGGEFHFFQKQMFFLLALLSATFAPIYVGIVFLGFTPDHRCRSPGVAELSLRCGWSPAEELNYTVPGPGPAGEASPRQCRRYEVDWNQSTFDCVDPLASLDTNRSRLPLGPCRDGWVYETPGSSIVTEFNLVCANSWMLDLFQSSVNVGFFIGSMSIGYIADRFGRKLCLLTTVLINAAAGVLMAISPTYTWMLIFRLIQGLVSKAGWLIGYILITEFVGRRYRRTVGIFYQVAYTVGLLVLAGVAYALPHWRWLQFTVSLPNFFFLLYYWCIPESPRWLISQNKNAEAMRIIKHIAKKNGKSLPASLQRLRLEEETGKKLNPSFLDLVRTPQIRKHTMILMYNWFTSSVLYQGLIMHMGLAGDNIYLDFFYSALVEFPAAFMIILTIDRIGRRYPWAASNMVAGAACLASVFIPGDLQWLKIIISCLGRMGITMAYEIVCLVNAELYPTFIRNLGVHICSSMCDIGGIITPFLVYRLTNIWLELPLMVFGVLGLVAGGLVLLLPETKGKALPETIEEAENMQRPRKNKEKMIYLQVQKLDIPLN
From the text: (§1) Drug transporters mediate the cellular uptake and efflux of their substrates. Therefore, cell lines overexpressing a drug transporter can be utilized to investigate inhibitors of the transporter by assessing changes in substrate uptake. For each drug transporter, we selected a well-characterized inhibitor as the positive control. Radiolabeled substrates were used to indicate the decrease in transport efficiency when the drug transporters were inhibited by PDQ or the control inhibitors.
(§2) The concentrations of the control drugs and the substrates were stated in the assay details. Working solutions of the control inhibitors, the radiolabeled substrates, and each dose of PDQ were prepared at 200 times (200×) more concentrated solutions with DMSO for further dilution.
(§3) Transporter-overexpressed cell lines. Human organic anion transporter-overexpressed cell lines MDCKII-OAT1 and S2-OAT3, human organic anion transport polypeptide-overexpressed cell lines HEK293A-OATP1B1 and HEK293A-OATP1B3, human organic cation transporter 2-overexpressed cell line S2-OCT2, and human multi-drug resistance protein MDR1 (or P-gp)-overexpressed cell line MDCKII-MDR1 were gifts from Japan Fuji Biomedical Co., Ltd. (Fuji, Shizuoka Prefecture, Japan). Breast cancer resistance protein-overexpressed vesicles (sf9-BCRP vesicle) were purchased from GenoMembrane Co., Ltd. (Yokohama, Kanagawa, Japan).
(§4) Substrates uptake assay. In this assay, we studied the inhibition of PDQ against transporters OAT1, OAT3, OCT2, OATP1B1 and OATP1B3 with MDCKII-OAT1, S2-OAT3, S2-OCT2, HEK293A-OATP1B1and HEK293A-OATP1B3 cells, respectively. The radiolabeled substrates for OAT1, OAT3, OATP1B1, OATP1B3 and OCT2 were […], respectively (Table 5). Probenecid ([…]) was the positive control inhibitor of OAT1 and OAT3, while rifampicin ([…]) served as the control drug of OATP1B1 and OATP1B3. For OCT2, we used […] cimetidine to compare with the inhibitory effect of PDQ. Two times (2×) more concentrated working solutions of the drugs and the substrate were prepared with Dulbecco’s phosphate-buffered saline (DPBS, Gibco, Grand Island, NY, USA.). Then, an equal volume of 2× drug solution and 2× radiolabeled substrate solution were mixed as the working mix. All reagents were pre-warmed to 37 °C.
(§5) The cells were digested with 0.05% trypsin/EDTA. The density of the single-cell suspension was adjusted to 2.0 × 10^5 cells/mL for S2 cells and to 1.5 × 10^5 cells/mL for MDCK II and HEK293A cells. The cell suspension was then added to the reservoirs of the 24-well plate for culture until full confluency. The medium in the wells was removed, and the wells were washed with DPBS. Then, the plate was incubated for 10 min with pre-warmed DPBS in the wells. After removing DPBS, […] of working mix was added to each well to initiate the substrate uptake process. The reaction time was 5 min for S2-OCT2 cells, while the other four types of cells were incubated with the reaction mix for 2 min. Cold DPBS was used to terminate the substrate transportation. To each well, […] NaOH ([…]) was added to lyse the cells. Then, […] cell lysate was transferred to the counting vials, and 3 mL scintillation cocktail (Aquasol-2, PerkinElmer, Waltham, MA, USA) was added. […] Each sample was replicated three times (N = 3).
(§6) In = [100 × (U − U0)/(Uc − U0)]%(3)
(§7) The results were expressed as mean ± standard deviation (SD) and analyzed with GraphPad Prism 8.0 software (CA, USA). The IC50 of PDQ was curve-fitted with the FORECAST function. Statistical significance was calculated using a two-tailed test, and a p value < 0.05 was considered as significant.

CYP2C9 = tested on: CYP2C9; set-up: method as in PMID 30078466; conditions: cited from earlier work
hOAT3 = molecular target: T2, hOAT3 (Homo sapiens, UniProt Q8TCC7); assay: Substrates uptake assay, S2-OAT3 cells (3H-ES); format: in vitro ADME; conditions: inhibitor 100 μM
T2 sequence (Q8TCC7 1-542): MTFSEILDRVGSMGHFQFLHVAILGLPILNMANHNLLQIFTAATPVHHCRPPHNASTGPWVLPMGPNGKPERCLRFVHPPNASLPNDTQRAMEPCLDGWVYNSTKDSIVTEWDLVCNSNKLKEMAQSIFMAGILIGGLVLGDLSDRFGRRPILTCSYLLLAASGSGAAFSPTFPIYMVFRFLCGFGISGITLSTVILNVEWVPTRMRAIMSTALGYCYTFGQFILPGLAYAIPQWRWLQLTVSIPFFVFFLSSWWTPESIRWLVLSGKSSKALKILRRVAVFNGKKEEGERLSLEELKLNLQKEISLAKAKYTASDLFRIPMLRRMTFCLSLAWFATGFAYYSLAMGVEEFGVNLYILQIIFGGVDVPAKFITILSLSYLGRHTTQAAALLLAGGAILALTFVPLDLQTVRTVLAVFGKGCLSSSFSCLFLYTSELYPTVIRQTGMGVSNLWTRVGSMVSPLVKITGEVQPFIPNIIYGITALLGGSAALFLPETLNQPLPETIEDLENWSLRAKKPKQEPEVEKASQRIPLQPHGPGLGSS
From the text: as §1, §2, §3, §4, §5, §6, §7

hOATP1B3 = molecular target: T3, hOATP1B3 (Homo sapiens, UniProt Q9NPD5); assay: Substrates uptake assay, HEK293A-OATP1B3 cells (3H-EG); format: in vitro ADME; conditions: inhibitor 60 μM
T3 sequence (Q9NPD5 1-702): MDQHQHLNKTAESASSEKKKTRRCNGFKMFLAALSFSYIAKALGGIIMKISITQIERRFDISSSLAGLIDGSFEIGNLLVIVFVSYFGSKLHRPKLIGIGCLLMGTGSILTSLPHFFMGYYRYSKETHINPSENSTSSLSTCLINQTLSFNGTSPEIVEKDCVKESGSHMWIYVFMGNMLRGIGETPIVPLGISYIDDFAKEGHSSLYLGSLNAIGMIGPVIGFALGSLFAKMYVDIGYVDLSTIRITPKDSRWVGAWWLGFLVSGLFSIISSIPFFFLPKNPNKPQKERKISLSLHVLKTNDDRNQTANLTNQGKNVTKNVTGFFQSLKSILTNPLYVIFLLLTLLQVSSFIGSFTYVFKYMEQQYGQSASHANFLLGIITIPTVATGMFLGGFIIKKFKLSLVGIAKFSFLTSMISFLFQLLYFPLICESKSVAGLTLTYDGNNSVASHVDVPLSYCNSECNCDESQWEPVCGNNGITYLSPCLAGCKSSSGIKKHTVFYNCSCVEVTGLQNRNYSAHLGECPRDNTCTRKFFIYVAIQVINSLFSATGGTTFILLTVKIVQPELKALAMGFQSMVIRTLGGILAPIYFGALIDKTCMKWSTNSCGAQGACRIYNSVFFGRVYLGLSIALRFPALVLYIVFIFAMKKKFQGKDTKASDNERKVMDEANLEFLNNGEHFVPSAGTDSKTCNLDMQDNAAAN
From the text: as §1, §2, §3, §4, §5, §6, §7

hOATP1B1 = molecular target: T4, hOATP1B1 (Homo sapiens, UniProt Q9Y6L6); assay: Substrates uptake assay, HEK293A-OATP1B1 cells (3H-ES); format: in vitro ADME; conditions: inhibitor 60 μM
T4 sequence (Q9Y6L6 1-691): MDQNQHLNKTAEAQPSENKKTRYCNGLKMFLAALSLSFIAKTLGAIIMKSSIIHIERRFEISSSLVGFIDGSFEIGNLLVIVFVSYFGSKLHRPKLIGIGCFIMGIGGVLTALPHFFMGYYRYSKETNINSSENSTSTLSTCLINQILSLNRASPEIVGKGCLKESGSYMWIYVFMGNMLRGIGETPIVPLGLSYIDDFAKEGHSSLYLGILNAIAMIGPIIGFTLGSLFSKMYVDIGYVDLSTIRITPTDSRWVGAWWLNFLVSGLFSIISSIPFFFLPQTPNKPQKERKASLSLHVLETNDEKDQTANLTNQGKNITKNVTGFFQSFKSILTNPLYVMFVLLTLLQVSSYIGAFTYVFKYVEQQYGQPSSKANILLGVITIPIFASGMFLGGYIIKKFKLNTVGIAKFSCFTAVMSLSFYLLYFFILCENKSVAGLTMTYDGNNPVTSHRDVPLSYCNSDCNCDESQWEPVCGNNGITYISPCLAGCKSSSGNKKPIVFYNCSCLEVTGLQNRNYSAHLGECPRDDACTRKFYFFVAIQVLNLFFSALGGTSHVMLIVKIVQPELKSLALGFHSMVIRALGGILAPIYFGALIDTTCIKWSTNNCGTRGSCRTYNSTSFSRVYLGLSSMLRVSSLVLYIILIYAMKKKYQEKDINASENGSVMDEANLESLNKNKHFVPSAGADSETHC

DPM (14C-TEA uptake by OCT2) (hOCT2): 417.3±44.8 DPM
SMILES: CN/C(=N/CCSCc1nc[nH]c1C)NC#N [Cimetidine, reference compound]

SMILES: CC(C)=CCC[C@](C)(O[C@@H]1O[C@H](CO[C@@H]2O[C@H](CO)[C@@H](O)[C@H](O)[C@H]2O)[C@@H](O)[C@H](O)[C@H]1O)[C@H]1CC[C@]2(C)[C@@H]1[C@H](O)C[C@@H]1[C@@]3(C)CC[C@H](O[C@@H]4O[C@H](CO)[C@@H](O)[C@H](O)[C@H]4O[C@@H]4O[C@H](CO)[C@@H](O)[C@H](O)[C@H]4O)C(C)(C)[C@@H]3CC[C@]12C [Ginsenoside Rb1]
IC50 (CYP2C9): 2400 nM

DPM (3H-ES uptake by OAT3) (hOAT3): 1709.3±343.6 DPM
SMILES: CCCN(CCC)S(=O)(=O)c1ccc(C(=O)O)cc1 [Probenecid, reference compound]

DPM (3H-EG uptake by OATP1B3) (hOATP1B3): 769.0±126.5 DPM
DPM (3H-ES uptake by OATP1B1) (hOATP1B1): 2798.7±891.8 DPM
SMILES: CO[C@H]1/C=C/O[C@@]2(C)Oc3c(C)c(O)c4c(O)c(c(/C=N/N5CCN(C)CC5)c(O)c4c3C2=O)NC(=O)/C(C)=C\C=C\[C@H](C)[C@H](O)[C@@H](C)[C@@H](O)[C@@H](C)[C@H](OC(C)=O)[C@@H]1C [Rifampicin, reference compound]
